For 36 molecules, MIC results are on record in patent US8299065B2, “Antibacterial condensed thiazoles” (Biota Europe Ltd., priority 2007, dated 2012).

Molecules are shown by their SMILES. Values after ≈ are worked out from the molar mass of the structure shown.

This experiment has as its system Enterococcus faecalis ATCC 29212. Description: MIC testing against Enterococcus faecalis ATCC 29212. It counts as cell-based. The following applies: ATCC29212, read-out: MICs against Enterococcus faecalis, Activity. The procedure: Minimum Inhibitory Concentration (MIC) Testing Compounds of this invention were tested for antimicrobial activity by susceptibility testing in liquid or on solid media. MICs for compounds against each strain were determined by the broth microdilution or agar dilution method according to the guidelines of the Clinical Laboratories and Standards Institute, formerly the National Committee for Clinical Laboratory Standards (Clinical Laboratories and Standards Institute. Methods for Dilution Antimicrobial Susceptibility Tests for Bacteria That Grow Aerobically; Approved Standard—Seventh Edition. Document M7-A7. CLSI, Wayne, Pa., 2006; Clinical Laboratories and Standards Institute. Methods for Antimicrobial Susceptibility Testing of Anaerobic Bacteria; Approved Standard—Sixth Edition. Document M11-A6. CLSI, Wayne, Pa., 2004).
For the molecule `CCNC(=O)Nc1nc2cc(-c3cc(C)n(Cc4ccccn4)c(=O)c3)ccc2s1` [Example 35, 1-ethyl-3-(5-(6-methyl-2-oxo-1-(pyridin-2-ylmethyl)-1,2-dihydropyridin-4-yl)benzo[d]thiazol-2-yl)urea], the MIC fell in the range of 0.25 to 1 µg/mL (≈ 0.596 to 2.38 µM). The value for `CCNC(=O)Nc1nc2cc(-c3cc(C)n(C(C)c4ccccn4)c(=O)c3)ccc2s1` (stereo not drawn) [Example 36, 1-ethyl-3-(5-(6-methyl-2-oxo-1-(1-(pyridin-2-yl)ethyl)-1,2-dihydropyridin-4-yl)benzo[d]thiazol-2-yl)urea] was 2 to 16 µg/mL (≈ 4.61 to 36.9 µM); that for `CCNC(=O)Nc1nc2cc(-c3ccc4c(=O)c(C(=O)OCC)cn(C)c4c3)ccc2s1` [Example 37, ethyl 7-(2-(3-ethylureido)benzo[d]thiazol-5-yl)-1-methyl-4-oxo-1,4-dihydroquinoline-3-carboxylate] was 2 to 16 µg/mL (≈ 4.44 to 35.5 µM). The value for `CCNC(=O)Nc1nc2cc(-c3ccc(NC(C)=O)nc3)c(F)cc2s1` [Example 38, N-(5-(2-(3-ethylureido)-6-fluorobenzo[d]thiazol-5-yl)pyridin-2-yl)acetamide] was 0.25 to 1 µg/mL (≈ 0.669 to 2.68 µM); that for `CCNC(=O)Nc1nc2cc(-c3cnn(CC(=O)OCC)c3)c(F)cc2s1` [Example 39, ethyl 2-(4-(2-(3-ethylureido)-6-fluorobenzo[d]thiazol-5-yl)-1H-pyrazol-1-yl)acetate] was 2 to 16 µg/mL (≈ 5.11 to 40.9 µM); that for `CCNC(=O)Nc1nc2cc(-c3cc(C)oc(=O)c3)c(F)cc2s1` [Example 40, 1-ethyl-3-(6-fluoro-5-(6-methyl-2-oxo-2H-pyran-4-yl)benzo[d]thiazol-2-yl)urea] was 0.25 to 1 µg/mL (≈ 0.72 to 2.88 µM). As for `CCNC(=O)Nc1nc2cc(-c3cnc(N4CCN(CCO)CC4)nc3)c(F)cc2s1` [Example 41, 1-ethyl-3-(6-fluoro-5-(2-(4-(2-hydroxyethyl)piperazin-1-yl)pyrimidin-5-yl)benzo[d]thiazol-2-yl)urea], the MIC lay within 2 to 16 µg/mL (≈ 4.49 to 35.9 µM). As for `CCNC(=O)Nc1nc2cc(-c3cnc(N4CCNCC4)nc3)c(F)cc2s1.Cl` [Example 42, 1-ethyl-3-(6-fluoro-5-(2-(piperazin-1-yl)pyrimidin-5-yl)benzo[d]thiazol-2-yl)urea hydrochloride salt], the MIC is 2 to 16 µg/mL. Regarding `CCNC(=O)Nc1nc2cc(-c3cnc(N4CCC(C(=O)OC)CC4)nc3)c(F)cc2s1` [Example 43, methyl 1-(5-(2-(3-ethylureido)-6-fluorobenzo[d]thiazol-5-yl)pyrimidin-2-yl)piperidine-4-carboxylate], the MIC fell in the range of 0.25 to 1 µg/mL (≈ 0.545 to 2.18 µM).

In the case of `CCNC(=O)Nc1nc2cc(-c3cnc(N4CCC(C(=O)O)CC4)nc3)c(F)cc2s1` [Example 44, 1-(5-(2-(3-ethylureido)-6-fluorobenzo[d]thiazol-5-yl)pyrimidin-2-yl)piperidine-4-carboxylic acid], the MIC was below 0.25 µg/mL.

Take `CCNC(=O)Nc1nc2cc(-c3cnc(N4CCCC(C(=O)OC)C4)nc3)c(F)cc2s1` (stereo not drawn) [Example 45, methyl 1-(5-(2-(3-ethylureido)-6-fluorobenzo[d]thiazol-5-yl)pyrimidin-2-yl)piperidine-3-carboxylate]: the MIC was in the range of 0.25 to 1 µg/mL (≈ 0.545 to 2.18 µM).

In the case of `CCNC(=O)Nc1nc2cc(-c3cnc(N4CCCC(C(=O)O)C4)nc3)c(F)cc2s1` (stereo not drawn) [Example 46, 1-(5-(2-(3-ethylureido)-6-fluorobenzo[d]thiazol-5-yl)pyrimidin-2-yl)piperidine-3-carboxylic acid], the MIC is 0.25 to 1 µg/mL (≈ 0.562 to 2.25 µM).

Take `CCNC(=O)Nc1nc2cc(-c3cnn(C(C)C(=O)OC)c3)c(F)cc2s1` (stereo not drawn) [Example 47, methyl 2-(4-(2-(3-ethylureido)-6-fluorobenzo[d]thiazol-5-yl)-1H-pyrazol-1-yl)propanoate]: the MIC is 2 to 16 µg/mL (≈ 5.11 to 40.9 µM). Turning to `CCNC(=O)Nc1nc2cc(-c3c[nH]c4ncccc34)c(F)cc2s1` [Example 48, 1-ethyl-3-(6-fluoro-5-(1H-pyrrolo[2,3-b]pyridin-3-yl)benzo[d]thiazol-2-yl)urea], the MIC is 0.25 to 1 µg/mL (≈ 0.703 to 2.81 µM). The same measure for `CCNC(=O)Nc1nc2cc(-c3cc(C)n(CC4CCN(C)C4)c(=O)c3)c(F)cc2s1` (stereo not drawn) [Example 50, 1-ethyl-3-(6-fluoro-5-(6-methyl-1-((1-methylpyrrolidin-3-yl)methyl)-2-oxo-1,2-dihydropyridin-4-yl)benzo[d]thiazol-2-yl)urea]: 2 to 16 µg/mL (≈ 4.51 to 36.1 µM). The value for `CCNC(=O)Nc1nc2cc(-c3cc(C)n(CC4CCCCN4C)c(=O)c3)c(F)cc2s1` (stereo not drawn) [Example 51, 1-ethyl-3-(6-fluoro-5-(6-methyl-1-((1-methylpiperidin-2-yl)methyl)-2-oxo-1,2-dihydropyridin-4-yl)benzo[d]thiazol-2-yl)urea] was 2 to 16 µg/mL (≈ 4.37 to 35 µM); that for `CCNC(=O)Nc1nc2cc(-c3cc(C)n(Cc4cn(C)cn4)c(=O)c3)c(F)cc2s1` [Example 52, 1-ethyl-3-(6-fluoro-5-(6-methyl-1-((1-methyl-1H-imidazol-4-yl)methyl)-2-oxo-1,2-dihydropyridin-4-yl)benzo[d]thiazol-2-yl)urea] was 0.25 to 1 µg/mL (≈ 0.568 to 2.27 µM); that for `CCNC(=O)Nc1nc2cc(-c3cc(C)n(CC4CCCN4C(=O)OC(C)(C)C)c(=O)c3)c(F)cc2s1` (stereo not drawn) [Example 53, tert-butyl 2-((4-(2-(3-ethylureido)-6-fluorobenzo[d]thiazol-5-yl)-6-methyl-2-oxopyridin-1(2H)-yl)methyl)pyrrolidine-1-carboxylate] was 2 to 16 µg/mL (≈ 3.78 to 30.2 µM).

Take `CCNC(=O)Nc1nc2cc(-c3cc(C)n(CCCN(C)C)c(=O)c3)c(F)cc2s1` [Example 54, 1-(5-(1-(3-(dimethylamino)propyl)-6-methyl-2-oxo-1,2-dihydropyridin-4-yl)-6-fluorobenzo[d]thiazol-2-yl)-3-ethylurea]: the MIC fell in the range of 2 to 16 µg/mL (≈ 4.63 to 37.1 µM). For the molecule `CCNC(=O)Nc1nc2cc(-c3ccc(-c4noc(C)n4)nc3)c(F)cc2s1` [Example 55, 1-ethyl-3-(6-fluoro-5-(6-(5-methyl-1,2,4-oxadiazol-3-yl)pyridin-3-yl)benzo[d]thiazol-2-yl)urea], the MIC fell in the range of 0.25 to 1 µg/mL (≈ 0.627 to 2.51 µM). The same measure for `CCNC(=O)Nc1nc2cc(-c3cc(OC)ccn3)c(F)cc2s1` [Example 56, 1-ethyl-3-[6-fluoro-5-(4-methoxy-pyridin-2-yl)-benzothiazol-2-yl]-urea]: 2 to 16 µg/mL (≈ 5.77 to 46.2 µM); for `CCNC(=O)Nc1nc2cc(-c3cnc(N4CCN(C)CC4)nc3)c(F)cc2s1` [Example 57, 1-ethyl-3-(6-fluoro-5-(2-(4-methylpiperazin-1-yl)pyrimidin-5-yl)benzo[d]thiazol-2-yl)urea]: 2 to 16 µg/mL (≈ 4.81 to 38.5 µM); for `CCNC(=O)Nc1nc2cc(-c3cncc(OC)c3)c(F)cc2s1` [Example 58, 1-ethyl-3-(6-fluoro-5-(5-methoxypyridin-3-yl)benzo[d]thiazol-2-yl)urea]: 0.25 to 1 µg/mL (≈ 0.722 to 2.89 µM). The value for `CCNC(=O)Nc1nc2cc(-c3cncc(O)c3)c(F)cc2s1` [Example 59, 1-ethyl-3-(6-fluoro-5-(5-hydroxypyridin-3-yl)benzo[d]thiazol-2-yl)urea] was 0.25 to 1 µg/mL (≈ 0.752 to 3.01 µM). The same measure for `CCNC(=O)Nc1nc2cc(-c3ccc(C(N)=NO)nc3)c(F)cc2s1` [Example 60, 5-(2-(3-ethylureido)-6-fluorobenzo[d]thiazol-5-yl)-N′-hydroxypicolinimidamide]: 0.25 to 1 µg/mL (≈ 0.668 to 2.67 µM); for `CCNC(=O)Nc1nc2cc(-c3ccn(C)c(=O)c3)c(F)cc2s1` [Example 61, 1-ethyl-3-(6-fluoro-5-(1-methyl-2-oxo-1,2-dihydropyridin-4-yl)benzo[d]thiazol-2-yl)urea]: 0.25 to 1 µg/mL (≈ 0.722 to 2.89 µM); for `CCNC(=O)Nc1nc2cc(-c3ccn(CCN4CCOCC4)c(=O)c3)c(F)cc2s1` [Example 62, 1-ethyl-3-(6-fluoro-5-(1-(2-morpholinoethyl)-2-oxo-1,2-dihydropyridin-4-yl)benzo[d]thiazol-2-yl)urea]: 0.25 to 1 µg/mL (≈ 0.561 to 2.24 µM). `CCNC(=O)Nc1nc2cc(-c3ccn(CCN(C)C)c(=O)c3)c(F)cc2s1` [Example 63, 1-(5-(1-(2-(dimethylamino)ethyl)-2-oxo-1,2-dihydropyridin-4-yl)-6-fluorobenzo[d]thiazol-2-yl)-3-ethylurea]: the MIC was 2 to 16 µg/mL (≈ 4.96 to 39.7 µM). The same measure for `CCNC(=O)Nc1nc2cc(-c3ccc(CO)nc3)c(F)cc2s1` [Example 65, 1-ethyl-3-(6-fluoro-5-(6-(hydroxymethyl)pyridin-3-yl)benzo[d]thiazol-2-yl)urea]: 0.25 to 1 µg/mL (≈ 0.722 to 2.89 µM). The value for `CCNC(=O)Nc1nc2cc(-c3ccc(CN4CCOCC4)nc3)c(F)cc2s1` [Example 66, 1-ethyl-3-(6-fluoro-5-(6-(morpholinomethyl)pyridin-3-yl)benzo[d]thiazol-2-yl)urea] was 2 to 16 µg/mL (≈ 4.81 to 38.5 µM); that for `CCNC(=O)Nc1nc2cc(-c3ccn(C4CCNC4)c(=O)c3)c(F)cc2s1` (stereo not drawn) [Example 67, 1-ethyl-3-(6-fluoro-5-(2-oxo-1-(pyrrolidin-3-yl)-1,2-dihydropyridin-4-yl)benzo[d]thiazol-2-yl)urea] was 2 to 16 µg/mL (≈ 4.98 to 39.9 µM); that for `CCNC(=O)Nc1nc2cc(-c3ccc(CC(=O)NC)nc3)c(F)cc2s1` [Example 68, 2-{5-[2-(3-ethyl-ureido)-6-fluoro-benzothiazol-5-yl]-pyridin-2-yl}-N-methyl-acetamide] was 2 to 16 µg/mL (≈ 5.16 to 41.3 µM).

`CCNC(=O)Nc1nc2cc(-c3cncs3)c(F)cc2s1` [Example 69, 1-ethyl-3-(6-fluoro-5-(thiazol-5-yl)benzo[d]thiazol-2-yl)urea]: the MIC fell in the range of 2 to 16 µg/mL (≈ 6.2 to 49.6 µM). `CCNC(=O)Nc1nc2cc(-c3cnc(S(C)(=O)=O)nc3)c(F)cc2s1` [Example 70, 1-ethyl-3-(6-fluoro-5-(2-(methylsulfonyl)pyrimidin-5-yl)benzo[d]thiazol-2-yl)urea]: the MIC was 2 to 16 µg/mL (≈ 5.06 to 40.5 µM).

In the case of `CCNC(=O)Nc1nc2cc(-c3cccnc3)c(OC)cc2s1` [Example 71, 1-ethyl-3-(6-methoxy-5-(pyridin-3-yl)benzo[d]thiazol-2-yl)urea], the MIC is 0.25 to 1 µg/mL (≈ 0.761 to 3.05 µM).

Turning to `CCNC(=O)Nc1nc2cc(-c3ccn(C)c(=O)c3)c(OC)cc2s1` [Example 72, 1-ethyl-3-(6-methoxy-5-(1-methyl-2-oxo-1,2-dihydropyridin-4-yl)benzo[d]thiazol-2-yl)urea], the MIC was 0.25 to 1 µg/mL (≈ 0.697 to 2.79 µM).
